Reference: patent US20150274719A1, “AMINO-SUBSTITUTED IMIDAZO[1,2-A]PYRIDINECARBOXAMIDES AND THEIR USE” (BAYER PHARMA AKTIENGESELLSCHAFT, priority 2012, published 2015)
Where a name gives a salt, the structure may show the parent alone.

target: T1, recombinant guanylate cyclase reporter cell line (Rattus norvegicus, UniProt P19686+P20595); experiment: Action on recombinant guanylate cyclase reporter cell line; assay type: cell-based; conditions: in some cases mean values from individual determinations
T1 construct: expressed in transfected cells; host or cells: recombinant reporter cell line
T1 sequence (P19686 1-690): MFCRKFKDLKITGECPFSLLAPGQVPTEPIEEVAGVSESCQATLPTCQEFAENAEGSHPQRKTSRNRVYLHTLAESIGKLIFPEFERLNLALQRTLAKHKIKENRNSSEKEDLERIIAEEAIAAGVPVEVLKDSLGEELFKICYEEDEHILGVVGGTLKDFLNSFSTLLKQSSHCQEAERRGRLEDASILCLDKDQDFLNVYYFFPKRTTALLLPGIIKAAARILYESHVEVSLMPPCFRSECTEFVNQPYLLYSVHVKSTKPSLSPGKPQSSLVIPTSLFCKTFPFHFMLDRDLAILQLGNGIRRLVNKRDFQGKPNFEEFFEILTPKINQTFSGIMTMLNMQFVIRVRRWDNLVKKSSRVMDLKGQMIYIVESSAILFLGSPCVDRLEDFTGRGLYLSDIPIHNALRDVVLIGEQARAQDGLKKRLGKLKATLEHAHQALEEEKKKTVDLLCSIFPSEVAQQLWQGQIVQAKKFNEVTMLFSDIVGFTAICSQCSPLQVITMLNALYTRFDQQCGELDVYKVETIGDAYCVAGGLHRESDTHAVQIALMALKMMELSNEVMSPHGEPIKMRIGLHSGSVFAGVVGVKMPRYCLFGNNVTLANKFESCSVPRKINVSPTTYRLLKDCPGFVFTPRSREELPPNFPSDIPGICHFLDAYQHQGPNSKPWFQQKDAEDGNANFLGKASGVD
T1 sequence (P20595 1-619): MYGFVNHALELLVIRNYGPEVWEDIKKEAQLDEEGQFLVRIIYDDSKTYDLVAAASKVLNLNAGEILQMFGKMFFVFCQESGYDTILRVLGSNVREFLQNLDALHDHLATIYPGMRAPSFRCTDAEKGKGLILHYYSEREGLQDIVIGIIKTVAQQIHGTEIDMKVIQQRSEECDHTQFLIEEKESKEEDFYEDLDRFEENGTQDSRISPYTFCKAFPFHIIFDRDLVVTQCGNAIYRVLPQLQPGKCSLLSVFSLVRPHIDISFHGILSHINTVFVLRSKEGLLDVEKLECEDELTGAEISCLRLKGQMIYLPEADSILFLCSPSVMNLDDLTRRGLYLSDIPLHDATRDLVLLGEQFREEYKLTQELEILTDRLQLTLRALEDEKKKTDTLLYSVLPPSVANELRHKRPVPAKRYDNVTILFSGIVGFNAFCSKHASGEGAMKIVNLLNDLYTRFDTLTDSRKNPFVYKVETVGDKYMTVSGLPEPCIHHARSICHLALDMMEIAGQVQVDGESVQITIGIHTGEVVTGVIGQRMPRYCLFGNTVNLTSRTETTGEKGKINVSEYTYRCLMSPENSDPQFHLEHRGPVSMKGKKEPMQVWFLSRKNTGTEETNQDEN
Protocol: B-2. Action on Recombinant Guanylate Cyclase Reporter Cell Line
The cellular action of the compounds according to the invention is determined on a recombinant guanylate cyclase reporter cell line, as described in F. Wunder et al., Anal. Biochem. 339, 104-112 (2005).
Representative MEC values (MEC=minimal effective concentration) for the compounds according to the invention are shown in the following table (in some cases as mean values obtained from individual determinations): […]

Row | Compound | MEC (minimal effective concentration) [µM]
1 | Cc1nc2c(OCc3c(F)cccc3F)cc(Cl)cn2c1C(=O)NCC(C)(N)CC(C)C (racemic) [Example 225, rac-N-(2-Amino-2,4-dimethylpentyl)-6-chloro-8-[(2,6-difluorobenzyl)oxy]-2-methylimidazo[1,2-a]pyridine-3-carboxamide] | 0.30
2 | Cc1nc2c(OCc3c(F)cccc3F)cccn2c1C(=O)NC12CNCCC1C2 (single isomer, unassigned) [Example 184, ent-N-(3-Azabicyclo[4.1.0]hept-1-yl)-8-[(2,6-difluorobenzyl)oxy]-2-methylimidazo[1,2-a]pyridine-3-carboxamide] | 1.00
3 | Cc1cc(OCc2c(F)cccc2F)c2nc(C)c(C(=O)NC(CN)c3ccc4ccccc4c3)n2c1 (racemic) [Example 379, rac-N-[2-amino-1-(2-naphthyl)ethyl]-8-[(2,6-difluorobenzyl)oxy]-2,6-dimethylimidazo[1,2-a]pyridine-3-carboxamide] | 1.00
4 | Cc1cc(OCc2c(F)cccc2F)c2nc(C)c(C(=O)NC3CCCC(N)C3)n2c1 (centres unmarked) [Example 160, N-(3-aminocyclohexyl)-8-[(2,6-difluorobenzyl)oxy]-2,6-dimethylimidazo[1,2-a]-pyridine-3-carboxamide] | 1.00
5 | Cc1cc(OCc2c(F)cccc2F)c2nc(C)c(C(=O)NC3(C)CCC3(C)N)n2c1 (single isomer, unassigned; enantiomer b) [Example 337, ent-N-[(2-amino-1,2-dimethylcyclobutyl]-8-[(2,6-difluorobenzyl)oxy]-2,6-dimethylimidazo[1,2-a]pyridine-3-carboxamide (Enantiomer B)] | 0.55
6 | Cc1cc(OCc2c(F)cccc2F)c2nc(C)c(C(=O)NCC(C)(N)Cc3nc4ccccc4s3)n2c1 (racemic) [Example 310, rac-N-[2-amino-3-(1,3-benzothiazol-2-yl)-2-methylpropyl]-8-[(2,6-difluorobenzyl)oxy]-2,6-dimethylimidazo[1,2-a]pyridine-3-carboxamide] | 0.30
7 | Cc1cc(OCc2c(F)cccc2F)c2nc(C)c(C(=O)NCCN(CC(F)F)C3CC3)n2c1 [Example 164, N-{2-[cyclopropyl(2,2-difluoroethyl)amino]ethyl}-8-[(2,6-difluorobenzyl)oxy]-2,6-dimethylimidazo[1,2-a]-pyridine-3-carboxamide] | 0.10
8 | Cc1cc(OCc2c(F)cccc2F)c2nc(C)c(C(=O)NCC3(N)COC3)n2c1 [Example 216, N-[(3-Aminooxetan-3-yl)methyl]-8-[(2,6-difluorobenzyl)oxy]-2,6-dimethylimidazo[1,2-a]pyridine-3-carboxamide] | 1.00
9 | CCCC[C@H](CN1CCOCC1)NC(=O)c1c(C)nc2c(OCc3c(F)cccc3F)cccn12 [Example 64, ent-8-[(2,6-Difluorobenzyl)oxy]-2-methyl-N-[(2R)-1-(morpholin-4-yl)hexan-2-yl]imidazo[1,2-a]-pyridine-3-carboxamide] | 0.30
10 | CCCC(C)(N)CNC(=O)c1c(C2CC2)nc2c(OCc3c(F)cccc3F)cc(C)cn12 (stereo not drawn) [Example 322, ent-N-(2-amino-2-methylpentyl)-2-cyclopropyl-8-[(2,6-difluorobenzyl)oxy]-6-methylimidazo[1,2-a]pyridine-3-carboxamide] | 0.30
11 | Cc1nc2c(OCc3c(F)cccc3F)cc(Cl)cn2c1C(=O)NC1CNc2ccccc21 (racemic) [Example 49, rac-6-Chloro-8-[(2,6-difluorobenzyl)oxy]-N-(2,3-dihydro-1H-indol-3-yl)-2-methylimidazo[1,2-a]-pyridine-3-carboxamide] | 0.30
12 | Cc1cc(OCc2c(F)cccc2F)c2nc(C)c(C(=O)NC3CCC(N)C3)n2c1 (mixture of isomers) [Example 308, N-(3-aminocyclopentyl)-8-[(2,6-difluorobenzyl)oxy]-2,6-dimethylimidazo[1,2-a]pyridine-3-carboxamide (stereoisomer mixture)] | 0.20
13 | Cc1cc(OCc2c(F)cccc2F)c2nc(C)c(C(=O)NC(CN)c3cccc(C(F)(F)F)c3)n2c1 (racemic) [Example 394, rac-N-{2-amino-1-[3-(trifluoromethyl)phenyl]ethyl}-8-[(2,6-difluorobenzyl)oxy]-2,6-dimethylimidazo[1,2-a]pyridine-3-carboxamide] | 0.30
14 | Cc1nc2c(OCc3c(F)cccc3F)cc(F)cn2c1C(=O)NC(CN)c1ccc(F)c(F)c1 (stereo not drawn) [Example 53, ent-N-[2-Amino-1-(3,4-difluorophenyl)ethyl]-8-[(2,6-difluorobenzyl)oxy]-6-fluoro-2-methyl-imidazo[1,2-a]pyridine-3-carboxamide] | 0.30
15 | Cc1nc2c(OCc3c(F)cccc3F)cc(Cl)cn2c1C(=O)NCC(N)CC(F)(F)F (single isomer, unassigned) [Example 193, ent-N-(2-Amino-4,4,4-trifluorobutyl)-6-chloro-8-[(2,6-difluorobenzyl)oxy]-2-methylimidazo[1,2-a]pyridine-3-carboxamide] | 1.00
16 | Cc1nc2c(OCc3c(F)cccc3F)cc(Cl)cn2c1C(=O)NCC(C)(N)CC(C)C (single isomer, unassigned) [Example 227, ent-N-(2-Amino-2,4-dimethylpentyl)-6-chloro-8-[(2,6-difluorobenzyl)oxy]-2-methylimidazo[1,2-a]pyridine-3-carboxamide] | 0.30
17 | Cc1nc2c(OCc3c(F)cccc3F)cc(Cl)cn2c1C(=O)NCC(N)COC(C)C (racemic) [Example 217, rac-N-(2-Amino-3-isopropoxypropyl)-6-chloro-8-[(2,6-difluorobenzyl)oxy]-2-methylimidazo[1,2-a]pyridine-3-carboxamide] | 1.00
18 | Cc1nc2c(OCc3c(F)cccc3F)cccn2c1C(=O)NC1CNc2ccccc2C1 (racemic) [Example 75, rac-8-[(2,6-Difluorobenzyl)oxy]-2-methyl-N-(1,2,3,4-tetrahydroquinolin-3-yl)imidazo[1,2-a]-pyridine-3-carboxamide] | 1.00
19 | Cc1nc2c(OCc3c(F)cccc3F)cc(Cl)cn2c1C(=O)NC(C)(C)CN [Example 24, N-(1-amino-2-methylpropan-2-yl)-6-chloro-8-[(2,6-difluorobenzyl)oxy]-2-methylimidazo[1,2-a]pyridine-3-carboxamide] | 0.65
20 | Cc1cc(OCc2c(F)cccc2F)c2nc(C)c(C(=O)NCC(C)(N)Cc3ccccn3)n2c1 (racemic) [Example 297, rac-N-[2-amino-2-methyl-3-(pyridin-2-yl)propyl]-8-[(2,6-difluorobenzyl)oxy]-2,6-dimethylimidazo[1,2-a]pyridine-3-carboxamide] | 0.10
21 | Cc1nc2c(OCc3c(F)cccc3F)cccn2c1C(=O)NC(CN)c1ccc(F)cc1 (racemic) [Example 9, rac-N-[2-Amino-1-(4-fluorophenyl)ethyl]-8-[(2,6-difluorobenzyl)oxy]-2-methylimidazo[1,2-a]-pyridine-3-carboxamide] | 0.30
22 | C#Cc1cc(OCc2c(F)cccc2F)c2nc(C)c(C(=O)NCC(C)(N)CCC)n2c1 (stereo not drawn) [Example 355, ent-N-(2-amino-2-methylpentyl)-8-[(2,6-difluorobenzyl)oxy]-6-ethynyl-2-methylimidazo[1,2-a]pyridine-3-carboxamide Formate] | 0.30
23 | Cc1cc(OCc2c(F)cccc2F)c2nc(C)c(C(=O)NCC(N)COC(C)C)n2c1 (racemic) [Example 206, rac-N-(2-Amino-3-isopropoxypropyl)-8-[(2,6-difluorobenzyl)oxy]-2,6-dimethylimidazo[1,2-a]-pyridine-3-carboxamide] | 0.30
